What was measured:
Assay type in all cases: in vivo, human
[1] = Weight loss trials in one subject (first to fifth and further trials, Examples 4-9); settings: for weight lost during the trial: two months (61 days)
From the text: The therapeutic efficacy of a composition in accordance with the present invention has been tested herein.
These trials were not undertaken to lose weight as quickly as possible but rather they were undertaken with the recommendation by doctors to the subject(s) not to lose weight too quickly and to eat potassium rich foods, especially at night, instead of junk food.
As such, the aim of these trials was to have the subjects lose weight and stop the cravings for junk food with the aid of the compositions of this invention and use the enhanced energy and stimulation supplied from the compositions to change eating habits away from junk food thereby facilitating weight loss.
During a first trial, a subject was administered 300 mg of cesium chloride once per day in a glass of water every morning. The first trial lasted two months (61 days) and the subject (100 kg) lost ten kilograms during this time period, as follows:
In a second trial, the subject was administered 120 mg of lithium carbonate once per day with a glass of water every morning for two months (59 days). The subject reported after two weeks the stress of trying to diminish junk food intake was reduced.
In a third trial, the subject was administered 40 mg of lithium carbonate with a glass of water every morning for two months. The subject reported that the most difficult aspect was to stop the craving for junk food in the evening and the late afternoon.
In a fourth trial, the subject was administered 300 mg of rubidium chloride once per once day in a glass of water in the morning. This trial lasted two months (61 days), and the subject lost ten kilograms during this time period. The most difficult aspect reported was the urge to eat junk food for dinner and the cravings in the evening, which contributed to poor weight loss at the beginning of the trial (an option for people who cannot stop eating junk food at night would be to split the dosage and take half in the morning and half late in the afternoon or increase the dosage to 200 mg in the morning and 200 mg in the late afternoon).
In a fifth trial, the subject was administered 150 mg of rubidium chloride, 150 mg cesium chloride, and 40 mg of lithium carbonate once per day together in a glass of water in the morning. This trial lasted two months (61 days) and the subject lost ten kilograms during this time period. The most difficult aspect reported by the subject was the craving for junk food for dinner or late in the afternoon. This contributed to the little weight loss early in the study.
In further trials, the subject was administered lithium salts—lithium orotate, lithium aspartate, and lithium citrate (40 mg) with a glass of water in the morning. The subject reported similar cravings as noted above.

[2] = Example 1: alkali metal composition in water taken daily by a 100 kg person for two months; settings: 300 mg in water, each over another two-month period
Method: A 100 kg person was administered a pharmaceutical composition of the invention. Cesium chloride ([…]), rubidium chloride ([…]) and lithium aspartate (40 milligrams) together were dissolved in one glass of water and ingested in the morning daily over a two month period.

[3] = Blind trial with two subjects (rubidium chloride vs powdered sugar placebo), Example 10; settings: rubidium chloride 300 mg once per day
Method: In a blind trial with two subjects, a subject (66 kg) was administered 300 mg of rubidium chloride once per day in a glass of water in the morning for two months (61 days). The second subject was a person (98 kg) who was administered a placebo of powdered sugar once per day in a glass of water in the morning during the same two months.
The most difficult aspect reported by the subject was to stop eating junk food for dinner and to stop the craving for junk food in the evening, which is believed to be the reason for little weight loss at the beginning of the trial (a proposed solution for people who cannot stop eating at night would be to split the dosage of the 300 mg of rubidium chloride and take half in the morning and half late in the afternoon).
The aim of this trial was to have the subject lose weight and stop the craving for junk food with the aid of the composition. The enhanced energy and stimulation supplied from the composition that was tested to determine if it prompted a change in eating habits away from junk food, thereby facilitated weight loss. Both subjects stated there was a higher craving for junk food for them in the afternoon and evening.
The trial lasted two months and the subject lost no weight and found the powdered sugar caused no stimulation, while the subject lost 6.5 kilograms during this time period, as follows: […]

[4] = further trials, lithium salt 40 mg in the morning
[5] = further trials, lithium salt 40 mg in the morning, after two weeks
[6] = further trials, lithium salt 40 mg with a glass of water in the morning

O=C([O-])c1cc(=O)[nH]c(=O)[nH]1.[Li+] [lithium orotate]
feeling of stimulation (subject report) [1, 4]: not the feeling of stimulation as in the first and fourth trials | stress of trying to diminish junk food intake (subject report) [1, 5]: decreased | weight loss (in words) [1, 6]: Weight loss was recorded

[Cl-].[Cs+] [cesium chloride]
effect of the individual alkali metals ingested separately, compared with the combination [2]: worked as well and with the same sensation | Weight ([1]; first trial, cesium chloride 300 mg once per day, day 1-9): 100 kg | Weight ([1]; first trial, cesium chloride 300 mg once per day, day 10-13): 99 kg | Weight ([1]; first trial, cesium chloride 300 mg once per day, day 14-15): 98 kg | Weight ([1]; first trial, cesium chloride 300 mg once per day, day 16-23): 97 kg | Weight ([1]; first trial, cesium chloride 300 mg once per day, day 24-34): 96 kg | Weight ([1]; first trial, cesium chloride 300 mg once per day, day 35-41): 95 kg | Weight ([1]; first trial, cesium chloride 300 mg once per day, day 42-47): 94 kg | Weight ([1]; first trial, cesium chloride 300 mg once per day, day 48-52): 93 kg | Weight ([1]; first trial, cesium chloride 300 mg once per day, day 53-55): 92 kg | Weight ([1]; first trial, cesium chloride 300 mg once per day, day 56-58): 91 kg | Weight ([1]; first trial, cesium chloride 300 mg once per day, day 59-61): 90 kg | weight lost during the trial ([1]; first trial, cesium chloride 300 mg once per day, subject 100 kg): ten

[Cl-].[Rb+] [rubidium chloride]
effect of the individual alkali metals ingested separately, compared with the combination [2]: worked as well and with the same sensation | Weight ([1]; fourth trial, rubidium chloride 300 mg once per day, day 1-10): 102 kg | Weight ([1]; fourth trial, rubidium chloride 300 mg once per day, day 11-15): 101 kg | Weight ([1]; fourth trial, rubidium chloride 300 mg once per day, day 16-23): 100 kg | Weight ([1]; fourth trial, rubidium chloride 300 mg once per day, day 24-29): 99 kg | Weight ([1]; fourth trial, rubidium chloride 300 mg once per day, day 30-35): 98 kg | Weight ([1]; fourth trial, rubidium chloride 300 mg once per day, day 36-40): 97 kg | Weight ([1]; fourth trial, rubidium chloride 300 mg once per day, day 41-45): 96 kg | Weight ([1]; fourth trial, rubidium chloride 300 mg once per day, day 46-50): 95 kg | Weight ([1]; fourth trial, rubidium chloride 300 mg once per day, day 51-54): 94 kg | Weight ([1]; fourth trial, rubidium chloride 300 mg once per day, day 55-59): 93 kg | Weight ([1]; fourth trial, rubidium chloride 300 mg once per day, day 60-61): 92 kg | weight lost during the trial ([1]; fourth trial, rubidium chloride 300 mg once per day): ten | weight lost during the trial ([3]; subject (66 kg), two months (61 days)): 6.5 kilograms | craving for junk food (subject report) ([3]; subject): less craving for junk food than normal even after the first day | energy and activity during the day (subject report) ([3]; subject): much more energy than before | stimulation from the medication (subject report) ([3]; subject): very, very strong | Weight ([3]; subject, day 1-5): 66 kg | Weight ([3]; subject, day 6-9): 65.5 kg | Weight ([3]; subject, day 10-12): 65 kg | Weight ([3]; subject, day 13-18): 64 kg | Weight ([3]; subject, day 19-28): 63 kg | Weight ([3]; subject, day 29-30): 64 kg | Weight ([3]; subject, day 31-32): 63.5 kg | Weight ([3]; subject, day 33-34): 63 kg | Weight ([3]; subject, day 35-43): 62 kg | Weight ([3]; subject, day 44-51): 61 kg | Weight ([3]; subject, day 52-55): 60.5 kg | Weight ([3]; subject, day 56-59): 60 kg | Weight ([3]; subject, day 60-61): 59.5 kg

N[C@@H](CC(=O)[O-])C(=O)[O-].[Li+].[Li+] [lithium aspartate]
feeling of stimulation (subject report) [1, 4]: not the feeling of stimulation as in the first and fourth trials | stress of trying to diminish junk food intake (subject report) [1, 5]: decreased | weight loss (in words) [1, 6]: Weight loss was recorded

O=C([O-])CC(O)(CC(=O)[O-])C(=O)[O-].[Li+].[Li+].[Li+] [lithium citrate]
feeling of stimulation (subject report) [1, 4]: not the feeling of stimulation as in the first and fourth trials | stress of trying to diminish junk food intake (subject report) [1, 5]: decreased | weight loss (in words) [1, 6]: Weight loss was recorded

O=C([O-])[O-].[Li+].[Li+] [lithium carbonate]
stress of trying to diminish junk food intake (subject report) ([1]; second trial, lithium carbonate 120 mg once per day, after two weeks): reduced | Weight ([1]; second trial, lithium carbonate 120 mg once per day, day 1-14): 100 kg | Weight ([1]; second trial, lithium carbonate 120 mg once per day, day 15-19): 99 kg | Weight ([1]; second trial, lithium carbonate 120 mg once per day, day 20-27): 98 kg | Weight ([1]; second trial, lithium carbonate 120 mg once per day, day 28-35): 97 kg | Weight ([1]; second trial, lithium carbonate 120 mg once per day, day 36-39): 96 kg | Weight ([1]; second trial, lithium carbonate 120 mg once per day, day 40-46): 95 kg | Weight ([1]; second trial, lithium carbonate 120 mg once per day, day 47-52): 94 kg | Weight ([1]; second trial, lithium carbonate 120 mg once per day, day 53-57): 93 kg | Weight ([1]; second trial, lithium carbonate 120 mg once per day, day 58-59): 92 kg | weight loss (in words) ([1]; second trial, lithium carbonate 120 mg once per day, two months (59 days)): Weight loss resulted | feeling of stimulation (subject report) ([1]; third trial, lithium carbonate 40 mg every morning): not the feeling of stimulation as in the first trial | stress of trying to reduce junk food intake (subject report) ([1]; third trial, lithium carbonate 40 mg every morning, after two weeks): reduced | Weight ([1]; third trial, lithium carbonate 40 mg every morning, day 1-15): 100 kg | Weight ([1]; third trial, lithium carbonate 40 mg every morning, day 16-25): 99 kg | Weight ([1]; third trial, lithium carbonate 40 mg every morning, day 26-34): 98 kg | Weight ([1]; third trial, lithium carbonate 40 mg every morning, day 35-41): 97 kg | Weight ([1]; third trial, lithium carbonate 40 mg every morning, day 42-48): 96 kg | Weight ([1]; third trial, lithium carbonate 40 mg every morning, day 49-53): 95 kg | Weight ([1]; third trial, lithium carbonate 40 mg every morning, day 54-57): 94 kg | Weight ([1]; third trial, lithium carbonate 40 mg every morning, day 58-60): 93 kg | Weight ([1]; third trial, lithium carbonate 40 mg every morning, day 61): 92 kg | weight loss (in words) ([1]; third trial, lithium carbonate 40 mg every morning, two months): Weight loss also resulted

Source: US8815304B2, “Compositions and methods for promoting appetite suppression using alkali metals” (Ashberry International Limited, priority 2010, dated 2014)
